Laboratory results from ChEMBL document CHEMBL1201862, “PubChem BioAssay data set” (2004).
Activity calls are given as the source filed them.

Legend:
[1] = NIH3T3 cell viability loss – ATP luminescence, mouse fibroblasts, counter-screen, dose response (AID 2010); format: functional, cell-based;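 also: cells exposed to compound for about 90 hours before reading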
[2] = Trypanosoma cruzi growth suppression in host cells – NIH3T3 host cells, beta-gal luminescence, confirmation (AID 2044); format: functional, cell-based;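 also: intracellular parasites grown in NIH/3T3 mouse fibroblasts as host cells; luminescent beta-galactosidase reporter signal from transgenic T. cruzi replicating inside host cells; inhibitors lower the luminescence signal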
[3] = M. tuberculosis H37Rv growth inhibitors, H37Rv strain (AID 1626); format: functional
[4] = viability loss in Vero cells – cytotoxicity control for Vif-APOBEC3G degradation inhibitor project, dose response (AID 1117358); format: functional; conditions: Vero
[5] = biological target: Voltage-gated inwardly rectifying potassium channel KCNH2 (Homo sapiens, UniProt Q12809); assay: concentration-dependent hERG rescue from blockers – cell-based, thallium flux, dose response (AID 2121); format: ADME
Caspase-6 = biological target: T1, Caspase-6 (Homo sapiens, UniProt P55212); assay: inhibition of CASP6 peptide cleavage – biochemical, VEID-R110 fluorescence, cherry-pick, dose response (AID 720632)
T1 sequence (P55212 whole entry): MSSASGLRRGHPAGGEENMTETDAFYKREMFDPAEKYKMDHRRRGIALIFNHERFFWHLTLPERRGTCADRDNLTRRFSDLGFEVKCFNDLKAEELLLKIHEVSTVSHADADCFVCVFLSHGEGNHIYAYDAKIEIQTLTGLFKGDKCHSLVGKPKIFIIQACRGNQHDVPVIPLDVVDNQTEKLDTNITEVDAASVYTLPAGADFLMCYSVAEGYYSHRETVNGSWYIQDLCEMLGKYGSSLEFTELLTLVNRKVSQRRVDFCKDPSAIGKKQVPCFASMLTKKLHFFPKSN

[6] = biological target: T2, COUP transcription factor 2 (Homo sapiens, UniProt P24468); assay: Luminescence-based cell-based high throughput dose response assay to identify inhibitors of COUP-TFII (NR2F2).; format: functional;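 also: HEK293 cells transiently cotransfected with COUP-TFII expression vector and reporter; luciferase reporter luminescence driven by COUP-TFII from the pX2-168 reporter plasmid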
T2 sequence (P24468 whole entry): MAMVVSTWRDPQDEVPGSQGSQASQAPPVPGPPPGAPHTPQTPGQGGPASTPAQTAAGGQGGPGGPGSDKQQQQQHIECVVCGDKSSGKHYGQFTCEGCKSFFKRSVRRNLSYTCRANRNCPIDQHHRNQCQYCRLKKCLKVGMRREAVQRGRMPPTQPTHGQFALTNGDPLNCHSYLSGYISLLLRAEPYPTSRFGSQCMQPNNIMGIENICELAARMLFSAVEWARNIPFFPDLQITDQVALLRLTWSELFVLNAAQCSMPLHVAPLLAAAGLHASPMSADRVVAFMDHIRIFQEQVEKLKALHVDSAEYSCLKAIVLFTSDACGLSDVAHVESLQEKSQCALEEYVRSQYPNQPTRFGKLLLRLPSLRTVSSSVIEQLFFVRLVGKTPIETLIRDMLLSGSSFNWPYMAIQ

[7] = reduction of Shn3 3'UTR-driven luciferase in osteoblasts – cell-based, Clone20 osteoblasts, firefly luciferase, cherry-picked, dose response (AID 624132); format: functional;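 also: firefly luciferase luminescence from reporter carrying the Shn3 3'UTR in osteoblasts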
[8] = loss of viability in HepG2 cells – cell-based, CellTiter-Glo, cherry-picked, cytotoxicity control for Shn3 inhibitor project, dose response (AID 624134); format: functional
Protein Wnt-3a = Protein Wnt-3a (Mus musculus, UniProt P27467); assay: antagonism of Wnt3a pathway luciferase reporter – Wnt-LIGHT cells, luminescence, selectivity assay for Gli-SUFU antagonist project, dose response (AID 651570); format: functional; conditions: read-out: IC50_Mean;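 also: Wnt-LIGHT reporter cells stimulated with conditioned medium from Wnt3a-producing cells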
[9] = Luminescence-based cell-based high throughput dose response assay to identify activators of the DAF-12 from the parasite S. stercoralis (ssDAF-12).; format: functional
[10] = biological target: T3, Oxysterols receptor LXR-beta (Homo sapiens, UniProt P55055); assay: LXR agonists, Gal4 luciferase reporter, dose response, counter-screen for ssDAF-12 agonist project, cell-based, luminescence, HEK293, S. stercoralis campaign (AID 720737); format: functional; conditions: read-out: IC50 (the source's name)
T3 sequence (P55055 whole entry): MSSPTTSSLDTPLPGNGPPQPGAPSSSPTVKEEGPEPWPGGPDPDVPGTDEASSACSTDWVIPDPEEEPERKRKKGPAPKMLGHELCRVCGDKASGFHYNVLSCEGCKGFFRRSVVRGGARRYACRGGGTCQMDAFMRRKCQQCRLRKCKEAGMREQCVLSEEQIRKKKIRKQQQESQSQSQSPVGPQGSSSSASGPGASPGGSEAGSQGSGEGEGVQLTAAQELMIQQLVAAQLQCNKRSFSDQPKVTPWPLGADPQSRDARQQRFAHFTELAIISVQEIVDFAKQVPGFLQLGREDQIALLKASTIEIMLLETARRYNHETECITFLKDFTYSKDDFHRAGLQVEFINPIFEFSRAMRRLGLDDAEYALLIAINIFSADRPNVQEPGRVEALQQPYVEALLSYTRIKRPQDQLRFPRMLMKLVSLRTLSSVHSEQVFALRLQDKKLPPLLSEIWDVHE

[11] = biological target: FAD-linked sulfhydryl oxidase ALR (Homo sapiens, UniProt P55789); assay: ALR-catalysed DTT oxidation blockers – biochemical, H2O2 detection, luminescence, cherry-pick, dose response (AID 493248)
[12] = biological target: T4, Rac GTPase-activating protein 1 (Homo sapiens, UniProt Q9H0H5); assay: blockers of MgcRacGAP-driven Rac1 GTP hydrolysis – biochemical, ADP Hunter fluorescence, primary and confirmatory, confirmation (AID 624330); format: functional
T4 sequence (Q9H0H5 whole entry): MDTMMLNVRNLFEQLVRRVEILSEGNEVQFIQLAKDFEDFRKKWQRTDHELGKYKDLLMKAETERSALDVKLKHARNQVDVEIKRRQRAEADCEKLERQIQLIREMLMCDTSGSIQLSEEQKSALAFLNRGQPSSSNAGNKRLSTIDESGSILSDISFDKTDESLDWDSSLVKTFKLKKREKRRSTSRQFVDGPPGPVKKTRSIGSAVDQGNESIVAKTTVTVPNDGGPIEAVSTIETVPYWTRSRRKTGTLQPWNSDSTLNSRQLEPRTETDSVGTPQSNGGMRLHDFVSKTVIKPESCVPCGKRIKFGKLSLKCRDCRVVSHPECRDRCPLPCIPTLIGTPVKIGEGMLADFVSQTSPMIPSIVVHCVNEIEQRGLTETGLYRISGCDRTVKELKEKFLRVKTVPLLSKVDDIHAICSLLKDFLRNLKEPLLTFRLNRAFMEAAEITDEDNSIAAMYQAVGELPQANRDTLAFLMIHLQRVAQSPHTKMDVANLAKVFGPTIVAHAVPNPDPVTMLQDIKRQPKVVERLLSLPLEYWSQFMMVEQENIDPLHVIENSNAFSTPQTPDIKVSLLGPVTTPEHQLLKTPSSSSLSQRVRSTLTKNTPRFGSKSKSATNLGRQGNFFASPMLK

[13] = toxicity to human hepatoma HepG2 cells – cell-based, cherry-picked samples, cytotoxicity control, dose response (AID 1159577); format: functional
[14] = P. falciparum Dd2 growth inhibitors, dose response, SYBR Green, cherry-picked samples (AID 1159567); format: functional, cell-based
[15] = Luminescence Cell-Based Dose Retest to Confirm Inhibitors of Cancer Stem Cells. [Related pubchem assays (depositor defined):AID2717, AID2721]; format: functional; conditions: Homo sapiens
[16] = non-specific 3'UTR reporter inhibition in Clone20-Shn3RL – cell-based, Renilla luciferase, cherry-picked, counter-screen for Shn3 inhibitor project, dose response (AID 624133); format: functional
INS1 = assay: INS-1E survival protection against cytokine death – cell-based, luminescence, retest, dose response (AID 449756); format: functional; conditions: Rattus norvegicus;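 also: cell death triggered by IL-1 beta plus TNF-alpha plus IFN-gamma mixture; protective hits raise ATP signal compared with cytokine alone wells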
[17] = NIH-3T3 fibroblast cytotoxicity, dose response, cytotoxicity control, cell-based, fluorescence, Alamar Blue, secondary assay (AID 2327); format: functional;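 also: NIH-3T3 mouse fibroblasts cultured with fluconazole at 8 µg/mL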
Streptococcus = assay: GAS UMAA2166 growth inhibition – luminescence, BacTiterGlo, counter-screen for streptokinase expression inhibitor project, dose response (AID 1915); format: functional, organism-based;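 also: potency for reduction of bacterial viability or growth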
[18] = tested on: Streptococcus sp. 'group A'; assay: Streptococcus pyogenes SK(-)GAS viability under kanamycin – luminescence, BacTiterGlo, confirmation, counter-screen for streptokinase expression inhibitor project, dose response (AID 1900); format: functional, organism-based
[19] = fluconazole-exposed Candida albicans growth modulators – fluorescence, retest, confirmation (AID 2467); format: functional, cell-based

Chain of Voltage-gated inwardly rectifying potassium channel KCNH2 (Q12809 whole entry): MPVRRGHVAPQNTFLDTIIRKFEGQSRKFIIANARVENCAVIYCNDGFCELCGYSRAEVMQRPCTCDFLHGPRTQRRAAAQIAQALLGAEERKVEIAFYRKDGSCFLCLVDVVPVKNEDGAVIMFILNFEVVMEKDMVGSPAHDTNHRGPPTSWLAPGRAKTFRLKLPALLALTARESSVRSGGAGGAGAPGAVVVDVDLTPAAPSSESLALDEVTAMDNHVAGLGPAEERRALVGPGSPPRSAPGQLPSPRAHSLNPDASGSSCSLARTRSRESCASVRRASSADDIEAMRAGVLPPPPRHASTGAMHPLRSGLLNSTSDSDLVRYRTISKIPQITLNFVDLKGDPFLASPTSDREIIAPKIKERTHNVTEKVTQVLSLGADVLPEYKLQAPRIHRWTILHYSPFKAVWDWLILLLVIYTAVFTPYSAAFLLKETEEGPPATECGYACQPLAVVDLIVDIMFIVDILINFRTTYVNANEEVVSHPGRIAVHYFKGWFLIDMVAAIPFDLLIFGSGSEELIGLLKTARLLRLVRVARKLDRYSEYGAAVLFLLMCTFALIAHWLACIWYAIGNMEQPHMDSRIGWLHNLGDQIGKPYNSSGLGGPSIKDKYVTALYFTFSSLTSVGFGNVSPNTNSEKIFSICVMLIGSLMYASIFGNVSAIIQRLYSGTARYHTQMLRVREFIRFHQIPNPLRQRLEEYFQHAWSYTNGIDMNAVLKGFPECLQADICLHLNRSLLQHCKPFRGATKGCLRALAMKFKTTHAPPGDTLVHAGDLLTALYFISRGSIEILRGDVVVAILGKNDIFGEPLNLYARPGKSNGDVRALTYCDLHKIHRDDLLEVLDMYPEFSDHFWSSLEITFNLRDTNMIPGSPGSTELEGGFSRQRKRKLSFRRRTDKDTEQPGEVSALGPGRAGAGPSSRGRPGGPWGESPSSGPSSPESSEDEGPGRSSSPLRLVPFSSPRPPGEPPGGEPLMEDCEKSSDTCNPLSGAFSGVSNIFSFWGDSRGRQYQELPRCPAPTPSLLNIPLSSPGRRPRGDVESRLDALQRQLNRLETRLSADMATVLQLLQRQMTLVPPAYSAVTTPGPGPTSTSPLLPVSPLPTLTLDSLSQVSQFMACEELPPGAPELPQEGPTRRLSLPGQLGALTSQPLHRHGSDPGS
Chain of FAD-linked sulfhydryl oxidase ALR (P55789 whole entry): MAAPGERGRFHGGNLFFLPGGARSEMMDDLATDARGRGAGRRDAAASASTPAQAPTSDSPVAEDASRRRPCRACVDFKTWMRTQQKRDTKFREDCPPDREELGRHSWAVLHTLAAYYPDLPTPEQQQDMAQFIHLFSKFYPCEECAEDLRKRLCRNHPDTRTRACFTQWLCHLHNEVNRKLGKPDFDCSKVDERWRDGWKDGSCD
Chain of Protein Wnt-3a (P27467 whole entry): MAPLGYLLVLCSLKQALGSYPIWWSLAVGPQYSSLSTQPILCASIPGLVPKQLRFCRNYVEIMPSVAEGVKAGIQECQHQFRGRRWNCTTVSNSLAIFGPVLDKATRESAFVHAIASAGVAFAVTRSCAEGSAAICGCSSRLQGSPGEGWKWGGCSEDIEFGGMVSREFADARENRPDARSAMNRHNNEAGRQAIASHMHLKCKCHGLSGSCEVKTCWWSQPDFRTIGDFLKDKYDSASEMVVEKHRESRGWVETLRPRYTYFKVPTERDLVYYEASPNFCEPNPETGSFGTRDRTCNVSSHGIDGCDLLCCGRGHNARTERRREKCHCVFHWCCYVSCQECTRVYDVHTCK

In the case of `O=C(CCC1CCCN(Cc2cccc(Cl)c2)C1)NCc1ccccc1F` (centres undefined), the EC50 [1] is reported as > 30 µM (not active), the EC50 (cells) is reported as 0.045 µM (active) and the EC50 [2] is reported as < 0.1 µM (active).

With `Cc1nc(SCc2ccccc2F)c2oc3ccccc3c2n1` the IC50 [3] was > 100 µM (active).

For `c1ccc(-c2cc(-c3nnc4n3N=C(c3ccc5ccccc5c3)CS4)n[nH]2)cc1`, the EC50 [1] was 7.45 µM (active), the CC50 [4] was > 40 µM (active) and the EC50 [2] was 1.63 µM (active).

For `Cc1ccc(NC(S)=NNc2ncc(C(F)(F)F)cc2Cl)cc1`, the CC50 [4] was > 40 µM (active).

For `C=C(C)CN=C(S)NN=C1c2ccccc2-c2ccccc21`, the EC50 [5] was 0.95 µM (active).

For `CC(C)(C)c1ccc(C(=O)Nn2c(CCC(=O)O)ccc2-c2cccs2)cc1`, the AC50 (Caspase-6) was 45.1 µM (active).

With `O=C(Nc1nnc(Cc2c[nH]c3ccccc23)s1)c1ccc(Cl)cc1Cl` the AC50 (Caspase-6) was 49.2 µM (active).

For `CCOc1ccc(NC(=O)CSc2ccccc2N)cc1`, the IC50 [3] was > 100 µM (active).

With `Cc1ccc2nc(N(CCCN(C)C)C(=O)c3ccc(S(=O)(=O)N4CCOCC4)cc3)sc2c1` the EC50 [1] was 10.8 µM (active), the EC50 (cells) was 0.007 µM (active) and the EC50 [2] was < 0.1 µM (active).

In the case of `CC(=O)c1cccc(NS(=O)(=O)c2ccc(-c3cnc(C4CC4)o3)cc2)c1`, the IC50 [6] is reported as 12.3 µM (inactive), the AC50 [7] is reported as 5 µM (active) and the AC50 [8] is reported as 47.3 µM (active). For the same compound, the IC50 (Protein Wnt-3a) was 6.03 µM (active).

With `COc1cc(-c2nnc(O)o2)cc(OC)c1OC` the CC50 [4] was > 40 µM (active).

For `CC1=NN(C(=O)CCc2ccc3c(c2)OCO3)C(O)(C(F)(F)F)C1` (centres undefined), the IC50 [9] was > 67.5 µM (inactive) and the EC50 [10] was > 67.5 µM (inactive).

For `CC(=O)N1CCN(c2ccc(N)cc2)CC1`, the AC50 [11] was 1.06 µM (active), the IC50 [12] was 16.2 µM (active) and the AC50 (Caspase-6) was 11.1 µM (active).

With `c1ccc(Cc2c(-c3ccco3)nc3c4ccccc4ccn23)cc1` the IC50 [9] was > 67.5 µM (inactive) and the EC50 [10] was > 67.5 µM (inactive).

With `Cc1ccc(/C=N/Nc2ccc(C(=O)O)cc2)o1` the EC50 [5] was 11 µM (active) and the AC50 [11] was 2.79 µM (active).

With `Cc1ccc(-c2ccc([C@@H]3[C@H](CO)N4CCCCN(S(=O)(=O)c5ccccc5C)C[C@@H]34)cc2)cc1` the AC50 [13] was 11 µM (active) and the AC50 [14] was 0.589 µM (active).

With `CCC(=O)N1[C@H](CO)[C@H](c2ccc(C3=CCCC3)cc2)[C@H]1CNC1CCCC1` the AC50 [13] was > 42 µM (inactive) and the AC50 [14] was 5.63 µM (active).

With `Oc1ccc(CCNc2ncnc3ccc(Cl)cc23)cc1` the IC50 [6] was 5.5 µM (active), the AC50 [15] was 1.57 µM (active) and the AC50 [7] was 0.551 µM (active). The AC50 [16] was 0.942 µM (active), the AC50 [8] was 43 µM (active) and the AC50 (INS1) was 3.73 µM (active).

In the case of `CC(C)(C)c1ccc(C(=O)CC(=O)c2cc(Cl)ccc2O)cc1`, the EC50 [17] is reported as 136 µM (active), the EC50 [5] is reported as 6.61 µM (active) and the EC50 (Streptococcus) is reported as 2.68 µM (active). The EC50 [18] was 0.192 µM (active) and the EC50 [19] was 1.9 µM (active).
